Laboratory results taken from patent US4156016A, “Indole compounds and process for their preparation” (Hoffmann-La Roche Inc., priority 1977, dated 1979).
Where two headings read alike, the source gives them in different places.

Tests used:
[1] = test system: Epinephrine induced aggregation; assay: Inhibition of epinephrine-induced platelet aggregation (second wave) in human platelet-rich plasma; assay type: cell-based; settings: for inhibition at 10 µM / inhibition at 20 µM / inhibition at 25 µM / inhibition at 50 µM / inhibition at 100 µM: Homo sapiens, Platelet, read-out: Percent Inhibition
Protocol: (§1) Venous blood was collected from human volunteers in siliconized 20 ml. […] Platelet rich plasma (PRP) was separated from the red blood cells by centrifugation at 180×g for 15 minutes at room temperature. Platelet poor plasma (PPP) was prepared by centrifuging PRP at 1000×g for 2 minutes.
(§2) Techniques established by Born et al., J. Physiol. […] PRP (1 ml.) was added to a siliconized cuvette containing a siliconized stirring bar and placed in a densitometer maintained at 37° C. and stirred at 1000 RPM. Various concentrations of test compounds were added in 50 μl of saline and incubated with PRP for 5 minutes. Aggregation was initiated by the addition of sufficient concentrations of ADP (Sigma Chemical Co.), epinephrine HCl (Parke, Davis & Co., Detroit, Michigan), or human mammary gland collagen (obtained from Roosevelt Hospital, N.Y.) to give about 60% of maximum aggregation response. The light transmission through PPP was used to determine maximum response. The percent inhibition of aggregation caused by the drug was calculated from the strip chart recordings at the point of maximum collagen response.

[2] = test system: arachidonic acid induced diarrhea; assay: Arachidonic acid diarrhea prevention (mice); assay type: in vivo, Carworth Farm CF-1 male mice; settings: Mus musculus, po
Protocol: Carworth Farm CF-1 male mice weighing 18-20 grams were administered the test compound by either the oral or intraperitoneal route one hour prior to the intraperitoneal administration of 4 mg/kg of arachidonic acid (Hoffmann-La Roche Inc.). […] The diarrhea was graded on paper towels as follows: 0=solid pellet or no bowel movement; 1=slightly soft pellet with little or no wet ring formation; 2=moderately soft pellet with definite wet ring formation; 3=soft pellet with large wet ring formation; and 4=amorphous pellet with very large wet ring formation.
The calculation of the ED50 was made according to the method of Miller et al., Proc. Soc.

[3] = test system: Collagen-Induced Platelet Aggregation; assay: Inhibition of collagen-induced platelet aggregation in human platelet-rich plasma; assay type: cell-based; settings: for inhibition at 2.5 µM / inhibition at 5 µM / inhibition at 15 µM / inhibition at 25 µM / inhibition at 50 µM: read-out: Percent Inhibition
Protocol: as §1, §2

[4] = target: T1, Prostaglandin synthetase (Ovis aries, UniProt P05979); assay: Prostaglandin synthetase inhibition; assay type: biochemical; settings: read-out: PG synthetase IC50
T1 construct: from tissue
T1 sequence (P05979 25-600): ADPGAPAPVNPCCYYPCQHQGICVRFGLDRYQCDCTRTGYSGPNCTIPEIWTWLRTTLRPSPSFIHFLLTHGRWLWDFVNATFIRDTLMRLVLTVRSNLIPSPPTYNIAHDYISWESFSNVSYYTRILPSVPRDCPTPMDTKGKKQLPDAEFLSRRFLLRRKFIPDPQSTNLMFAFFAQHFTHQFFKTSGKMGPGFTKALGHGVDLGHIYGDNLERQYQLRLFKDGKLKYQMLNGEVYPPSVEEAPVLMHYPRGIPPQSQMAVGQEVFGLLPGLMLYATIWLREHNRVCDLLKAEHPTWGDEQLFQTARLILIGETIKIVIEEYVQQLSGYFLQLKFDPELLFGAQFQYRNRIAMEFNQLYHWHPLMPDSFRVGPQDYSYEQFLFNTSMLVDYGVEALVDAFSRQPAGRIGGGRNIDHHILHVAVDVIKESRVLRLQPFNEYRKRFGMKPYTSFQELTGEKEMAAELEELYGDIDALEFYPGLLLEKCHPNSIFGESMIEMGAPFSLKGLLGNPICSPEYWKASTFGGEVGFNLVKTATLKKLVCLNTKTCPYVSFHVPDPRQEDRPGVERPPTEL

[5] = test system: Collagen-Induced Platelet Aggregation; assay: Effect of compounds in whole blood: collagen-induced platelet aggregation after incubation in whole blood; assay type: cell-based, human; settings: for Δ light transmission: mean of duplicate determinations; for inhibition at 1 µM / inhibition at 5 µM / inhibition at 10 µM / inhibition at 25 µM / inhibition at 50 µM / inhibition at 100 µM: read-out: percent inhibition
Protocol: Aliquots of citrated human blood (10 ml.) were exposed to different concentrations of the "nitrile" by mechanically shaking at room temperature for 5 minutes.

[6] = Toxicity (general statement)
[7] = Homo sapiens, Platelet, 5 μM, Expt. I
[8] = Homo sapiens, Platelet, 5 μM, Expt. II
[9] = Homo sapiens, Platelet, 25 μM, Expt. I
[10] = Homo sapiens, Platelet, 25 μM, Expt. II
[11] = Homo sapiens, Platelet, 50 μM, Expt. I
[12] = Homo sapiens, Platelet, 50 μM, Expt. II

N#Cc1[nH]c2ccc(C(O)(C(F)(F)F)C(F)(F)F)cc2c1-c1ccccc1 [nitrile, 3-Phenyl-5-[2,2,2-trifluoro-1-hydroxy-1-(trifluoromethyl)ethyl]indole-2-carbonitrile]
Δ light transmission ([1]; 10 μM, Expt. I): 45 units | Δ light transmission ([1]; 10 μM, Expt. II): 47 units | Δ light transmission ([1]; 20 μM, Expt. I): 30 units | Δ light transmission ([1]; 20 μM, Expt. II): 34 units | Δ light transmission ([1]; 25 μM, Expt. I): 25 units | Δ light transmission ([1]; 25 μM, Expt. II): 30 units | Δ light transmission ([1]; 50 μM, Expt. I): 18 units | Δ light transmission ([1]; 50 μM, Expt. II): 14 units | Δ light transmission ([1]; 100 μM, Expt. I): 11 units | Δ light transmission ([1]; 100 μM, Expt. II): 9 units | inhibition at 10 µM ([1]; 10 μM, Expt. I): 0% | inhibition at 10 µM ([1]; 10 μM, Expt. II): 6% | inhibition at 20 µM ([1]; 20 μM, Expt. I): 33.3% | inhibition at 20 µM ([1]; 20 μM, Expt. II): 32% | inhibition at 25 µM ([1]; 25 μM, Expt. I): 44.4% | inhibition at 25 µM ([1]; 25 μM, Expt. II): 40% | inhibition at 50 µM ([1]; 50 μM, Expt. I): 60% | inhibition at 50 µM ([1]; 50 μM, Expt. II): 71% | inhibition at 100 µM ([1]; 100 μM, Expt. I): 75% | inhibition at 100 µM ([1]; 100 μM, Expt. II): 82% | IC50 ([1]; incubation in human citrated platelet-rich plasma): 40 µM | ED50 [2]: 5 mg/kg | Δ light transmission ([3]; 2.5 μM, Expt. I): 49 units | Δ light transmission ([3]; 2.5 μM, Expt. II): 50 units | Δ light transmission ([3]; 5 μM, Expt. I): 24 units | Δ light transmission ([3]; 5 μM, Expt. II): 20 units | Δ light transmission ([3]; 15 μM, Expt. I): 8 units | Δ light transmission ([3]; 15 μM, Expt. II): 7 units | Δ light transmission ([3]; 25 μM, Expt. I): 5 units | Δ light transmission ([3]; 25 μM, Expt. II): 5 units | Δ light transmission ([3]; 50 μM, Expt. I): 4 units | Δ light transmission ([3]; 50 μM, Expt. II): 3 units | inhibition at 2.5 µM ([3]; Homo sapiens, Platelet, 2.5 μM, Expt. I): 24.6% | inhibition at 2.5 µM ([3]; Homo sapiens, Platelet, 2.5 μM, Expt. II): 16.7% | inhibition at 5 µM [3, 7]: 63.1% | inhibition at 5 µM [3, 8]: 66.6% | inhibition at 15 µM ([3]; Homo sapiens, Platelet, 15 μM, Expt. I): 87.7% | inhibition at 15 µM ([3]; Homo sapiens, Platelet, 15 μM, Expt. II): 88.3% | inhibition at 25 µM [3, 9]: 92.4% | inhibition at 25 µM [3, 10]: 91.6% | inhibition at 50 µM [3, 11]: 93.8% | inhibition at 50 µM [3, 12]: 95% | IC50 ([3]; Homo sapiens, Platelet, Table 7, read-out: Inhibition of collagen-induced platelet aggregation, Activity IC50): 3.5 µM | IC50 ([3]; incubation in human citrated platelet-rich plasma, read-out: IC50 collagen): 3.5 µM | IC50 [4]: 0.5 µM | Δ light transmission ([5]; 1 μM, Expt. I): 18 units | Δ light transmission ([5]; 1 μM, Expt. II): 19 units | Δ light transmission ([5]; 1 μM, Expt. III): 27 units | Δ light transmission ([5]; 5 μM, Expt. I): 14 units | Δ light transmission ([5]; 5 μM, Expt. II): 15 units | Δ light transmission ([5]; 5 μM, Expt. III): 20 units | Δ light transmission ([5]; 10 μM, Expt. I): 13 units | Δ light transmission ([5]; 10 μM, Expt. II): 13 units | Δ light transmission ([5]; 10 μM, Expt. III): 17 units | Δ light transmission ([5]; 25 μM, Expt. I): 9 units | Δ light transmission ([5]; 25 μM, Expt. II): 10 units | Δ light transmission ([5]; 25 μM, Expt. III): 13 units | Δ light transmission ([5]; 50 μM, Expt. I): 8 units | Δ light transmission ([5]; 50 μM, Expt. II): 9 units | Δ light transmission ([5]; 50 μM, Expt. III): 10 units | Δ light transmission ([5]; 100 μM, Expt. I): 4 units | Δ light transmission ([5]; 100 μM, Expt. II): 4 units | Δ light transmission ([5]; 100 μM, Expt. III): 6 units | inhibition at 1 µM ([5]; Homo sapiens, Platelet, 1 μM, Expt. I): 10% | inhibition at 1 µM ([5]; Homo sapiens, Platelet, 1 μM, Expt. II): 9.5% | inhibition at 1 µM ([5]; Homo sapiens, Platelet, 1 μM, Expt. III): 10% | inhibition at 5 µM [5, 7]: 30% | inhibition at 5 µM [5, 8]: 29% | inhibition at 5 µM ([5]; Homo sapiens, Platelet, 5 μM, Expt. III): 33% | inhibition at 10 µM ([5]; Homo sapiens, Platelet, 10 μM, Expt. I): 35% | inhibition at 10 µM ([5]; Homo sapiens, Platelet, 10 μM, Expt. II): 38% | inhibition at 10 µM ([5]; Homo sapiens, Platelet, 10 μM, Expt. III): 43% | inhibition at 25 µM [5, 9]: 55% | inhibition at 25 µM [5, 10]: 52% | inhibition at 25 µM ([5]; Homo sapiens, Platelet, 25 μM, Expt. III): 57% | inhibition at 50 µM [5, 11]: 60% | inhibition at 50 µM [5, 12]: 57% | inhibition at 50 µM ([5]; Homo sapiens, Platelet, 50 μM, Expt. III): 67% | inhibition at 100 µM ([5]; Homo sapiens, Platelet, 100 μM, Expt. I): 80% | inhibition at 100 µM ([5]; Homo sapiens, Platelet, 100 μM, Expt. II): 81% | inhibition at 100 µM ([5]; Homo sapiens, Platelet, 100 μM, Expt. III): 80% | IC50 ([5]; Homo sapiens, Platelet, incubation in whole blood): 25 µM | toxicity (in words) [6]: low in toxicity
